In patent US20030130180A1, “Utilization of an aminopeptidase inhibitor” (priority 2000, published 2003):

Test system: tumor cells and immune cells
Experiment: Cell-biological experiments on blocking of polarization of tumor cells and immune cells
Type: cell-based
Conditions: general statement
Text: By means of a method of simultaneously detecting a number of cell surface proteins, it has been established that aminopeptidases will control cell surface proteins which are not part of the class of proteolytic enzymes, but belong to the class of the adhesion molecules, which adhesion molecules—in a certain combination and geometric array—will be decisive for the polarization of the cells. Consequently, aminopeptidases appear to be superordinate control proteins in a protein network consisting of up to 30 different cell surface protein species which—through specific interaction with one another—will control polarization of tumor cells and other invasive cells such as immune cells and which are listed above. The inhibition of at least one aminopeptidase will lead to a reproducible modification of surface protein combinations on the cell surface which will always also involve a modification of CD13. […] The term polarization as used here shall denote a process in which a primarily spherical cell will transition into an oblong, elongated cell shape, via various intermediate states. This process which constitutes a change of shape controlled by the complex protein network is the prerequisite for cell migration, since only cells of oblong shape are capable of migrating. The polarization process therefore needs to precede all cell migration processes, including invasion. […]

In the case of CCCCC[C@H](CC(=O)NO)C(=O)N[C@H](C(=O)N1CCC[C@H]1CO)C(C)C [actinonin], the “effectiveness as aminopeptidase inhibitor blocking polarization” value is reported as “particularly effective”.
